The record followed here is ChEMBL document CHEMBL1138984, “Identification of phosphodiesterase-1 and 5 dual inhibitors by a ligand-based virtual screening optimized for lead evolution” (Bioorg Med Chem Lett, 2006).

Assay [1] deals with T1, Phosphodiesterase 1 (Homo sapiens, UniProt P54750+Q01064+Q14123). Description: Inhibition of PDE1 at 10 uM. Type of assay: protein assay. The arrangement: scale not given: the % may be the effect or the level left.
Assay [2] has as its target T2, cGMP-specific 3',5'-cyclic phosphodiesterase (Homo sapiens, UniProt O76074). Description: Inhibition of PDE5 at 10 uM. The arrangement: scale not given: the % may be the effect or the level left.
Assay [3] addresses T1, Phosphodiesterase 1. In words: Inhibition of PDE1. It is filed as protein assay.
The target in assay [4] is T2, cGMP-specific 3',5'-cyclic phosphodiesterase. Description: Inhibition of PDE5.

Regarding `COc1ccc(-c2nc(NC(=O)CSCC(=O)O)sc2C)cc1`, the Activity on Phosphodiesterase 1 [1] is 21%; in assay [2], 51%.
With `N#Cc1c(C(F)(F)F)cc(-c2cccs2)nc1SCc1ccc(C(=O)O)cc1`, the IC50 on Phosphodiesterase 1 [3] stood at 1900 nM; in assay [4] it was 700 nM.
`N#CC1=C(N)OC2=C(C(=O)CCC2)C1c1ccc(OCC(=O)Nc2cccc(C(F)(F)F)c2)cc1` (stereo not drawn): the Activity on Phosphodiesterase 1 [1] was 9%; in assay [2], 52%.
Regarding `O=C(O)c1ccc(-c2ccc(-c3nc(O)c4c5c(sc4n3)CCCC5)o2)cc1`, the half-inhibitory concentration (IC50) against Phosphodiesterase 1 [3] was determined as 3700 nM; in assay [4], 3100 nM.
Take `Cc1cc(C)nc(NS(=O)(=O)c2ccc(NC(=O)c3cccc(NC(=O)C(F)(F)F)c3)cc2)n1`: the Activity at Phosphodiesterase 1 [1] was 15%; in assay [2], 44%.
Consider `Cn1c(=O)[nH]c(=O)c2c1nc(S)n2CC(O)COc1ccc2ccccc2c1` (stereo not drawn), for which the IC50 against Phosphodiesterase 1 [3] was found to be 300 nM; in assay [4], 8700 nM.
As to `NS(=O)(=O)c1ccc(-c2ccc(/C=C3/C(=O)NN(c4cccc(C(F)(F)F)c4)C3=O)o2)cc1`, the Activity stood at 45% at Phosphodiesterase 1 [1] and 66% in assay [2].
Regarding `Cc1ccc(-c2cc(C(=O)Nc3ccc(S(N)(=O)=O)cc3)c3ccccc3n2)s1`, the IC50 at Phosphodiesterase 1 [3] came out at 2500 nM; in assay [4], 6300 nM.
`Cc1oc(C(=O)N2CCCC2C(=O)O)cc1COc1ccc2oc3ccccc3c2c1` (stereo not drawn): the Activity is 42% on Phosphodiesterase 1 [1] and 48% in assay [2].
In the same order, the values of `COc1cc(/C=C2\SC(=S)N(CC(=O)O)C2=O)ccc1OC(=O)c1cccs1` are 59% and 46%.
In the same order, the values of `Cc1cc(C(=O)Nc2cccc(C(=O)O)c2)cc(S(=O)(=O)Nc2cccc(C(=O)O)c2)c1C` are 49% and 19%.
The corresponding values for `COc1cc(C2CC(=O)NC(SCC(=O)Nc3ccc(Br)cc3)=C2C#N)ccc1O` (stereo not drawn) are 25% and 23%.
Consider `N#Cc1c(/N=C/c2ccc(-c3ccc(C(=O)O)cc3)o2)sc2c1CCCC2`, for which the IC50 on Phosphodiesterase 1 [3] worked out at 2500 nM; in assay [4], 2100 nM.
For the compound `COc1ccc(-c2csc(-n3[nH]c(C)c(C(c4ccccc4)C(C#N)C(N)=O)c3=O)n2)cc1` (stereo not drawn), the Activity at Phosphodiesterase 1 [1] is 9%; in assay [2], 42%.
The corresponding values for `CCOc1ccc2nc(SCC(=O)NCc3ccc(C(=O)O)cc3)sc2c1` are 12% and 39%.
In the case of `COc1ccccc1Nc1nc(-c2sc(N)nc2C)cs1`, the IC50 against Phosphodiesterase 1 [3] amounted to 2500 nM; in assay [4], 3000 nM.
In the same order, the values of `N#Cc1c(N)nc(SCC(=O)Nc2ccc(F)cc2)c(C#N)c1-c1ccccc1` are 5700 nM and 1700 nM.
Take `Cc1cccc(NCc2n[nH]c(SCC(=O)Nc3cc([N+](=O)[O-])ccc3Cl)n2)c1`: the Activity stood at 22% on Phosphodiesterase 1 [1] and 53% in assay [2].
In the same order, the values of `O=C(CSc1nnc(-c2ccccc2O)o1)NNC(=O)Cc1ccccc1` are 22% and 1%.

One may read the IC50 as the concentration that gives 50% inhibition.
